Experimental data reported in patent publication US20260284275A1, “NANOGEL COMPRISING BIOACTIVE MOLECULES, THERAPEUTIC MOLECULES OR DRUGS TOGETHER WITH AN AMPHIPHILIC MOLECULE” (CM4CURE S.A., priority 2023, published 2026).

Legend:
[1] = system: S. aureus (ATCC BAA-1556, MRSA); experiment: Real-time microcalorimetry (Calscreener) of bacterial growth in TSB; type: cell-based; settings: for bacterial growth (heat flow): 24 h, 37° C.
Method: S. aureus (ATCC BAA-1556, MRSA) was grown overnight in TSB (tryptic soy broth) medium, before being diluted 1×10^4 fold in fresh TSB. Subsequently […] aliquots of diluted bacteria suspensions were supplemented with 10 μg/mL and 20 μg/mL of respectively triafluocyl (Polpharma) alone or in the mixture with TPGS (MedChemExpress LLC (Europe)) (1:1 w/w). Both Triafluocyl and TPGS were prepared in absolute ethanol as already mentioned in the above examples and were refrigerated as master stocks in absolute ethanol. Triafluocyl, TPGS or ethanol (0.6% final conc.) as a vehicle were added to the bacterial suspensions to obtain the concentrations (10 μg/mL and 20 μg/m) followed by a brief vortexing. Bacterial aliquots were then distributed in the dedicated non-activated inserts of a 48-well plate and grown for 24 h under static conditions at 37° C. using Calscreener technology to measure bacterial growth and metabolic activity in Real-Time as described in https://cordis.europa.eu/project/id/784514.
In FIG. 6, the real-time microcalorimetric measurements of bacterial metabolic activity is expressed as the heat flow and represents bacterial growth in TSB medium. Solid line stands for control bacteria with a vehicle (0.6% ethanol); thick dashed line—bacteria treated with 10 μg/mL of triafluocyl; thick dotted line—bacteria treated with 20 μg/mL of triafluocyl; thin dashed line—bacteria treated with both triafluocyl and TPGS (10 μg/mL:10 μg/mL); thin dotted line—bacteria treated with both triafluocyl and TPGS (20 μg/mL:20 μg/mL).

[2] = system: S. aureus (MRSA, ATCC 6538); experiment: Real-time microcalorimetry of bacterial growth in liquid medium; type: cell-based; settings: Fluometacyl 10 or 20 μg/mL with hydroxypropyl-β-cyclodextrin 42 μg/mL, 24 h
Method: S. aureus (MRSA, ATCC 6538) was grown overnight in TSB (tryptic soy broth) medium, before being diluted 1×10^7 fold in the fresh TSB. Subsequently […] aliquots of diluted bacteria suspensions were supplemented with Fluometacyl® (10 or 20 μg/mL) or mixture of Fluometacyl® (10 or 20 μg/mL) and hydroxypropyl-β-cyclodextrin (42 μg/mL). Subsequently 300 μL of suspensions were placed into the dedicated non-activated inserts of a 48-well plate and allowed for growing for 24 h under static conditions at 37 C using Calscreener.
Curve A—control bacterial growth for S. aureus MRSA 10^−6; Curve B—Bacteria with Fluometacyl® (10 μg/mL); Curve C—Bacteria with Fluometacyl® (10 μg/mL) and hydroxypropyl-β-cyclodextrin (42 μg/mL); Curve D—Bacteria with Fluometacyl® (20 μg/mL); Curve E—Bacteria with Fluometacyl® (20 μg/mL) and hydroxypropyl-β-cyclodextrin (42 μg/mL).

CCCSc1nc(N[C@@H]2C[C@H]2c2ccc(F)c(F)c2)c2nnn([C@@H]3C[C@H](OCCO)[C@@H](O)[C@H]3O)c2n1 [Triafluocyl]
bacterial growth (heat flow) ([1]; 10 μg/mL): significantly reduces | bacterial growth (heat flow) ([1]; 20 μg/mL): fully inhibited

CC(O)COC[C@H]1O[C@@H]2O[C@H]3[C@H](O)[C@@H](O)[C@@H](O[C@H]4[C@H](O)[C@@H](O)[C@@H](O[C@H]5[C@H](O)[C@@H](O)[C@@H](O[C@H]6[C@H](O)[C@@H](O)[C@@H](O[C@H]7[C@H](O)[C@@H](O)[C@@H](O[C@H]8[C@H](O)[C@@H](O)[C@@H](O[C@H]1[C@H](O)[C@H]2O)O[C@@H]8COCC(C)O)O[C@@H]7COCC(C)O)O[C@@H]6COCC(C)O)O[C@@H]5COCC(C)O)O[C@@H]4COCC(C)O)O[C@@H]3COCC(C)O (stereo partly drawn) [hydroxypropyl-β-cyclodextrin]
effect on the antibacterial activity of Fluometacyl in solution [2]: didn't impair

D-α-tocopheryl polyethylene glycol succinate [TPGS]
effect of added TPGS on the inhibitory effect of triafluocyl on bacterial growth ([1]; TPGS at equivalent amount (1:1 w/w) to triafluocyl, 10 and 20 μg/mL): significantly reduced the inhibitory effect
